# Patent US20170319480A1, “PHARMACEUTICAL FORMULATION” (Boehringer Ingelheim International GmbH, priority 2014, published 2017)
# Experiment: Bioavailability of afatinib in fed state
# Format: in vivo
# Conditions: adults
# Source text: As decreased bioavailability of afatinib has been observed in adults ad fed state, the oral solution is not intended to be administered with food or drinks.
compound,measurement,value
"CN(C)C/C=C/C(=O)Nc1cc2c(Nc3ccc(F)c(Cl)c3)ncnc2cc1O[C@H]1CCOC1 [afatinib, 4-[(3-chloro-4-fluorophenyl)amino]-6-{[4-(N,N-dimethylamino)-1-oxo-2-buten-1-yl]amino}-7-((S)-tetrahydrofuran-3-yloxy)-quinazoline]",bioavailability in fed state,decreased
